This is an account of results in patent US7485434B2, “Method for screening compounds for those that modulate transducers of regulated CREB activity” (The Salk Institute for Biological Studies, priority 2005, dated 2009).

One data set relates to β cell. The following applies: organ transplant recipients receiving chronic immunosuppressive therapy; cited from earlier work.
Data set [1] deals with gluconeogenic genes (PEPCK, PGC-1α, G6Pase). Briefly: Q-PCR of gluconeogenic gene expression in primary rat hepatocytes. The format is cell-based. The note with it: primary rat hepatocytes exposed to glucagon; CHX pre-treatment. The protocol: Specifically, FIG. 17A illustrates the effect of TORC2 on induction of gluconeogenic genes (PEPCK, PGC-1α, G6Pase) by FSK (10 μM, 2 hr) in cultured primary rat hepatocytes infected with TORC2 or control GFP adenovinus as indicated.
FIGS. 18A-18H illustrate that the induction of the AMP kinase family member SIK1 by CREB during fasting attenuates the gluconeogenic program. Specifically, FIG. 18A illustrates the time course of PEPCK gene expression in primary rat hepatocytes following exposure to FSK. mRNA levels were determined by Q-PCR analysis.
FIG. 18C illustrates the effect of CHX pretreatment on induction of gluconeogenic genes (PEPCK, PGC-1α, G6Pase) by glucagon in primary rat hepatocytes. Relative mRNA levels are shown.
FIG. 19B summarizes the effect of SIK1 RNAi on gluconeogenic gene expression in primary rat hepatocytes, presenting Q-PCR analysis showing the relative induction of PEPCK, PGC-1α, and G6Pase mRNAs by glucagon in cells infected with control (US) or SIK1 RNAi expressing adenoviruses.
FIG. 20D summarizes the effect of AlCAR on expression of gluconeogenic genes (PEPCK, PGC-1α) in primary rat hepatocytes. Cells infected with mutant Ser171Ala TORC2 (171) adenovinus indicated. Treatment with AICAR and FSK is shown.
Rat primary hepatocytes were prepared from 200-300g of Sprague-Dawley rats by collagenase perfusion method as described previously (see Koo et al., 2004). […]

Data set [2] concerns TORC2. Kind of data set: TORC2 phosphorylation in primary rat hepatocytes (Western blot). The format is cell-based. The note with it: primary rat hepatocytes. An excerpt: FIG. 18B illustrates the effect of CHX on levels of phospho (Ser171) TORC2 in primary rat hepatocytes treated with glucagon over a variety of time points, shown in hours. Western blot assay indicates the levels of TORC2, phospho (Ser171) TORC2 and CREB.
Specifically, FIG. 19A, top, presents a Western blot showing the effect of US and SIK1 RNAi adenoviruses on the levels of SIK1 protein in rat hepatocytes. FIG. 19A, bottom, presents a Western blot assay with nondiscriminating TORC2 antiserum, showing the effect of SIK1 RNAi adenovirus on TORC2 dephosphorylation (compare P-TORC2 and TORC2 bands) following exposure of primary rat hepatocytes to glucagon (Gluc). The arrow identifies phosphorylated TORC2.
Cells were exposed to AICAR and FSK for 30 minutes. Lower mobility bands (arrow) indicate phosphorylated TORC2 polypeptides.
Rat primary hepatocytes were prepared from 200-300g of Sprague-Dawley rats by collagenase perfusion method as described previously (see Koo et al., 2004). 1×10^6 cells were plated in 6 well plates with medium 199 (Invitrogen, Carlsbad, Calif.) supplemented by 10% FBS, 10 units/ml penicillin, 10 μg/ml streptomycin, and 10 nM dexamethasone for 3-6 hours. After attachment, cells were infected with adenoviruses for 16 hours. Subsequently, cells were maintained in medium 199 without FBS and dexamethasone for 24 hours (for cDNA expression adenoviruses) or 48 hours (for RNAi adenoviruses) and […] forskolin or 100 nM glucagon for 2 hours unless noted otherwise. For experiments with cycloheximide, 10 μg/ml cycloheximide was added 30 minutes prior to the addition of 100 nM glucagon.
Like other signaling pathways, cAMP stimulates gluconeogenic gene expression with burst-attenuation kinetics (see Sasaki et al., 1984). Following exposure of primary hepatocytes to Forskolin, PEPCK mRNA levels became maximal after 2 hours, returning to near baseline after 4 hours (see FIG. 18A). […] Consistent with this, CHX pre-treatment potentiated gluconeogenic gene expression in primary rat hepatocytes exposed to glucagon 2-3 fold (see FIG. 18C). […]

In a further data set the test system is CREB target gene NR4A2. Kind of data set: Quantitative PCR of CREB target gene NR4A2 in MIN6 insulinoma cells. The format is cell-based. The protocol:
FIG. 1B presents quantitative PCR (Q-PCR) analysis of the CREB target gene NR4A2 in MIN6 insulinoma cells exposed to glucose (20 mM) and/or exendin-4 (10 nM).
Cells were treated with cAMP agonist (Forskolin, 10 μM) and KCl (45 mM) or vehicle control. For glucose experiments, MIN6 cells were starved overnight in DME containing 2.75 mM glucose plus 16 mM mannitol and 10% FBS. The next day the medium was changed for the indicated times+inhibitor. Total RNA from treated MIN6 or HIT cells was extracted using an RNeasy mini-kit (Qiagen, Valencia, Calif.). 500 ng-1 μg of total RNA was used for generating cDNA with Superscript II enzyme (Invitrogen, Carlsbad, Calif.). cDNAs were analyzed by quantitative PCR using SYBR green PCR kit and an ABIPRISM 7700 Sequence detector (Perkin Elmer, Foster City, Calif.). All PCR data for CREB target NR4A2 (Conkright et al., 2003b) was normalized to ribosomal L32 or 36B4 expression in the corresponding sample.
Hamster insulinoma (HIT) cells were employed to test the relative effects of cAMP and calcium signals on CREB activity. Opening of voltage-sensitive L-type calcium channels in response to KC1 depolarization induced the CREB-dependent EVX-1 promoter (Conknight et al., 2003b) 5-fold in HIT cells, whereas addition of cAMP agonist stimulated the reporter 10-fold (see FIG. 1A). […]

Data set [3] concerns TORC2. Kind of data set: Immunofluorescence of TORC localization in ATYB1 fibroblasts. The format is cell-based, human. The following applies: ATYB1 cells. The procedure:
Specifically, FIG. 3A presents fluorescence microscopic analysis of Flag-tagged TORC2 in human ATYBI fibroblasts treated with forskolin (10 μM) or control vehicle for 30 minutes as indicated.
FIG. 3B illustrates the effect of exportin inhibitor leptomycin B (LMB) on nuclear targeting of TORC2 in transfected ATYB1 fibroblasts. DAPI staining is shown alongside to indicate nuclei.
FIG. 7C, top panels, illustrate the effect of SIK2 (or related family members) on TORC2 subcellular localization. Immunofluorescence microscopy is presented for ATYB1 cells transfected with Flagtagged TORC2 plus wild-type or PKA phosphorylation defective SIK2 (Ser587Ala) as indicated. DAP1 staining is shown below each panel. FIG. 7C, bottom panels, illustrate the effect of Ser171 Ala mutagenesis on cellular localization of TORC2. Treatment with forskolin is indicated.
FIG. 13, top panels, illustrates the cellular localization of endogenous TORC proteins in ATYBI cells using TORC specific antiserum. The effect of forskolin (10 μM, 30 minutes) and leptomycin B (LMB, 10 ng/ml, 2 hr) treatment is shown. DAP1 staining is shown below to visualize the nuclei. FIG. 13, bottom panel, illustrates the effect of LMB treatment on TORC1 localization in ATYBI cells transfected with flag-tagged TORC1 expression vector. TORC1 localization was followed using anti-flag antiserum. DAP1 staining is shown alongside. […]

The subject of another data set is CREB. Kind of data set: CREB Ser133 phosphorylation in liver after IP injection (histochemical and Western blot). In kind it is in vivo. The note with it: mice; intraperitoneal administration. A general note: A western blot detects proteins with antibodies after separation by electrophoresis.
The test system of data set [4] is TORC2. Briefly: TORC2 localization, Ser171 phosphorylation and promoter recruitment in liver after IP injection. In kind it is in vivo. The note with it: mice.

On to `C=CC[C@@H]1/C=C(\C)C[C@H](C)C[C@H](OC)[C@H]2O[C@@](O)(C(=O)C(=O)N3CCCC[C@H]3C(=O)O[C@H](/C(C)=C/[C@@H]3CC[C@@H](O)[C@H](OC)C3)[C@H](C)[C@@H](O)CC1=O)[C@H](C)C[C@@H]2OC` [FK506], for which the “β cell failure and diabetes” value in the data set with β cell was “cause β cell failure and diabetes with high frequency”.
With `C[C@@H]1C[C@@H]([C@H](O)CC2CC(=O)NC(=O)C2)C(=O)[C@@H](C)C1` [cycloheximide], the “potentiation of gluconeogenic gene expression” value in data set [1] is reported as 2-3 fold. The “effect on TORC2 Ser171 phosphorylation by glucagon at 3 hours” value in the data set on TORC2 [2] (CHX pre-treatment 10 μg/ml) is “blocked phosphorylation of TORC2 at Ser171”.
Consider `O=C[C@H](O)[C@@H](O)[C@H](O)[C@H](O)CO` [glucose], for which the “induction of NR4A2 expression” value in the data set with CREB target gene NR4A2 (high glucose (20 mM)) was 5 fold.
Consider `CCC(=C/[C@H](C)C/C=C/C(C)=C/[C@@H](C)C(=O)[C@@H](C)[C@H](O)[C@@H](C)C/C(C)=C/C(=O)O)/C=C/[C@@H]1OC(=O)C=C[C@@H]1C` [leptomycin B], for which, in the data set with TORC2 [3], the “time to nuclear accumulation of TORC” value was in the range of 30 to 60 min. Besides, the “nuclear accumulation of TORC” value with TORC2 [3] (forskolin 10 μM or LMB 10 ng/ml) is recorded as “strongly enhanced nuclear accumulation”.
With Exendin-4, in the data set on CREB target gene NR4A2 (co-stimulation glucose (20 mM) plus exendin-4 (10 nM)), the “NR4A2 mRNA levels enhanced” value turned out to be 35 fold.
For glucagon, in the data set on CREB, the “CREB Ser133 phosphorylation in liver” value was “promote CREB Ser133 phosphorylation in liver” and the “time to CREB Ser133 phosphorylation in liver” value is at most 10 min. In addition, the “recruitment of TORC2 to gluconeogenic genes (ChIP of liver tissue)” value with TORC2 [4] (10 minutes after IP administration) is listed as “promoted recruitment of TORC2 to gluconeogenic genes”. Moreover, in the data set with TORC2 [4] (IP administration), the “TORC2 phosphorylation at Ser171 in liver” value is given as “dephosphorylated”, the “nuclear translocation of hepatic TORC2” value is “induced translocation of TORC2 to liver nuclei” and the “time to translocation of TORC2 to liver nuclei” value is at most 10 min. In addition, the “TORC2 phosphorylation at Ser171” value with TORC2 [2] (3 hours after stimulation) was “strongly induced”.
